Experimental data taken from publication PMC7930822, “Phase I Trial to Evaluate the Tolerance, Pharmacokinetics and Efficacy of the Broad-Spectrum ErbB Family Inhibitor Larotinib Mesylate in Patients With Advanced Solid Tumors” (Frontiers in Pharmacology, 2021).
Structures can show the parent of a compound that is named as a salt.

Columns and labels:
[1] = test system: patients with advanced solid tumors; assay: tumor evaluation by RECIST version 1.1; assay type: in vivo, human; settings: for Disease control, n (%): CR, PR and SD; for Objective response, n (%): complete plus partial response
Method: Tumor evaluation was performed at screening, the end of cycle 1, and every two cycles of subsequent treatment according to RECIST version 1.1. The disease control rate (DCR) (including CR, PR and SD), objective remission rate (ORR) (including CR and PR), and progression-free survival (PFS) were also evaluated.
Blood samples for EGFR mutation site analyses were collected in screening, cycle 1 day 29, cycle 3 days 29 and every 8 weeks for the subsequent follow-up. Second-generation sequencing method was used to detect the amplification and mutation of the related tumor genes.

[2] = target: B-lymphoid tyrosine kinase (BLK); design: method as in data not published; settings: ref data not published; cited from earlier work
HER2 = test system: HER2; design: method as in data not published; settings: ref data not published; cited from earlier work
EGFR (T790M) = test system: EGFR (T790M); design: method as in data not published; settings: ref data not published; cited from earlier work
Sprague–Dawley rats = test system: Sprague–Dawley rats; design: method as in data not published; settings: ref data not published, cited from earlier work
HER4 = test system: HER4; design: method as in data not published; settings: ref data not published; cited from earlier work
tumor-bearing mice = assay: preclinical pharmacodynamic study in tumor-bearing mice; assay type: in vivo; settings: from effective dose of 18 mg/kg in tumor-bearing mice, by body surface area
Method: Animal toxicology studies of larotinib mesylate were conducted in both Sprague–Dawley rats and beagle dogs. […] The maximal tolerable doses (MTDs) were 20 and 25 mg/kg in Sprague–Dawley rats and beagle dogs, respectively.
According to the guidance for clinical trials of antitumor agents published by the Center for Drug Evaluation and Research in China, for cytotoxic antitumor agents, the initial dose in a phase I study can be calculated as 1/10 of the MTD in rodents or 1/6 of the MTD in non-rodent animals ([CFDA, 2012]). For non-cytotoxic antitumor agents, because of their relatively lower toxicity, the initial dose can be set higher. According to the reported preclinical results for larotinib mesylate, the MTD in Sprague–Dawley rats translated to a human equivalent dose of 192 mg/d according to body surface area (calculated by 60 kg body weight), for which 1/10 is 19.2 mg/d ([FDA, 2005]). […] Taking the above results for the toxicology, preclinical pharmacology and pharmacodynamics, and drug specifications (10, 50 and 100 mg) of larotinib mesylate into account, we calculated a recommended starting dose of 50 mg larotinib mesylate for a phase I, first-in-human clinical study, lower than human equivalent 1/6 MTD translated from beagle dogs and near the human equivalent effective dose translated from tumor-bearing mice. […]

## COc1cc2ncnc(Nc3ccc(F)c(Cl)c3)c2cc1OCCCN1C[C@@H]2OCCO[C@@H]2C1 [larotinib mesylate]
[1]; 50 mg (n = 3)
  Complete response, n (%): 0 (0)
  Partial response, n (%): 0 (0)
  Progressive disease, n (%): 1 (33.3)
  Stable disease, n (%): 2 (66.7)
  Disease control, n (%): 2 (66.7)
  Objective response, n (%): 0 (0)
[1]; 100 mg (n = 3)
  Complete response, n (%): 0 (0)
  Partial response, n (%): 0 (0)
  Progressive disease, n (%): 1 (33.3)
  Stable disease, n (%): 2 (66.7)
  Disease control, n (%): 2 (66.7)
  Objective response, n (%): 0 (0)
[1]; 150 mg (n = 3)
  Complete response, n (%): 0 (0)
  Partial response, n (%): 0 (0)
  Progressive disease, n (%): 1 (33.3)
  Stable disease, n (%): 2 (66.7)
  Disease control, n (%): 2 (66.7)
  Objective response, n (%): 0 (0)
[1]; 220 mg (n = 3)
  Complete response, n (%): 0 (0)
  Partial response, n (%): 1 (33.3)
  Progressive disease, n (%): 0 (0)
  Stable disease, n (%): 2 (66.7)
  Disease control, n (%): 3 (100)
  Objective response, n (%): 1 (33.3)
[1]; 300 mg (n = 6)
  Complete response, n (%): 0 (0)
  Partial response, n (%): 0 (0)
  Progressive disease, n (%): 4 (66.7)
  Stable disease, n (%): 2 (33.3)
  Disease control, n (%): 2 (33.3)
  Objective response, n (%): 0 (0)
[1]; 350 mg (n = 3)
  Complete response, n (%): 0 (0)
  Partial response, n (%): 1 (33.3)
  Progressive disease, n (%): 0 (0)
  Stable disease, n (%): 2 (66.7)
  Disease control, n (%): 3 (100)
  Objective response, n (%): 1 (33.3)
[1]; 400 mg (n = 3)
  Complete response, n (%): 0 (0)
  Partial response, n (%): 0 (0)
  Progressive disease, n (%): 0 (0)
  Stable disease, n (%): 3 (100)
  Disease control, n (%): 3 (100)
  Objective response, n (%): 0 (0)
[1]; NSCLC patient, 350-mg group, no EGFR-sensitive mutations
  duration of maintained PR: 19 cycles
[1]; Total (n = 24)
  Complete response, n (%): 0 (0)
  Partial response, n (%): 2 (8.3)
  Progressive disease, n (%): 7 (29.2)
  Stable disease, n (%): 15 (62.5)
  Disease control, n (%): 17 (70.8)
  Objective response, n (%): 2 (8.3)
[1]; after cycle one
  cases of PR among five patients with EGFR mutations at baseline: 1
  cases of SD among five patients with EGFR mutations at baseline: 4
[1]; all dose levels
  stable disease as best overall response, patients: 15
[1]; all dose levels, 24 evaluable
  overall disease control rate (DCR): 70.8%
[2]
  IC50: 102 nM
HER2
  IC50: 253 nM
EGFR (T790M)
  IC50: 45.2 nM
Sprague–Dawley rats; daily administration
  no observed adverse effect level (NOAEL): 10 mg/kg
Sprague–Dawley rats
  maximal tolerable dose (MTD): 20 mg/kg
HER4
  IC50: 84 nM
tumor-bearing mice
  human equivalent effective dose: 86.4 mg/day
